Experiments:
[1] = Plasma concentration in CD1 mouse at 1 mg/kg, iv administered as single dose measured after 120 mins; type: ADME, organism-based; set-up: dose 1 mg/kg, route intravenous
[2] = Toxicity in iv dosed CD1 mouse administered Q2D for 8 days; type: organism-based; details: CD1, mouse, in vivo
[3] = Plasma concentration in CD1 mouse at 1 mg/kg, iv administered as single dose measured after 5 mins; type: ADME, organism-based; set-up: dose 1 mg/kg, route intravenous
[4] = Plasma concentration in CD1 mouse at 1 mg/kg, iv administered as single dose measured after 30 mins; type: ADME, organism-based; set-up: dose 1 mg/kg, route intravenous
[5] = tested on: CCRF-CEM; experiment: Cytotoxicity against human CCRF-CEM cells after 48 hrs by SRB assay; type: functional
[6] = tested on: BT-549; experiment: Cytotoxicity against human BT549 cells after 48 hrs by SRB assay; type: functional; details: BT-549, 48 h
[7] = tested on: HOP-62; experiment: Cytotoxicity against human HOP62 cells after 48 hrs by SRB assay; type: functional; details: HOP-62, 48 h
[8] = tested on: M14; experiment: Cytotoxicity against human M14 cells after 48 hrs by SRB assay; type: functional; details: M14, 48 h
[9] = tested on: HT-29; experiment: Cytotoxicity against human HT-29 cells after 48 hrs by SRB assay; type: functional; details: HT-29, 48 h
[10] = tested on: OVCAR-4; experiment: Cytotoxicity against human OVCAR4 cells after 48 hrs by SRB assay; type: functional; details: OVCAR-4, 48 h
[11] = tested on: SF-268; experiment: Cytotoxicity against human SF268 cells after 48 hrs by SRB assay; type: functional; details: SF-268, 48 h
[12] = tested on: SN12C; experiment: Cytotoxicity against human SN12C cells after 48 hrs by SRB assay; type: functional
[13] = tested on: MDA-MB-435; experiment: Cytotoxicity against human MDA-MB-435 cells after 48 hrs by SRB assay; type: functional; details: MDA-MB-435, 48 h
[14] = tested on: RXF 393; experiment: Cytotoxicity against human RXF393 cells after 48 hrs by SRB assay; type: functional; details: RXF 393, 48 h
[15] = tested on: MCF7; experiment: Cytotoxicity against human MCF7 cells after 48 hrs by SRB assay; type: functional; details: MCF7, 48 h
[16] = tested on: SK-MEL-5; experiment: Cytotoxicity against human SK-MEL-5 cells after 48 hrs by SRB assay; type: functional; details: SK-MEL-5, 48 h, read-out: pGI50 (converted)
[17] = tested on: T47D; experiment: Cytotoxicity against human T47D cells after 48 hrs by SRB assay; type: functional
[18] = tested on: A549; experiment: Cytotoxicity against human A549 cells after 48 hrs by SRB assay; type: functional; details: A549, 48 h, read-out: pGI50 (converted)
[19] = tested on: DU-145; experiment: Cytotoxicity against human DU145 cells after 48 hrs by SRB assay; type: functional; details: DU-145, 48 h
[20] = tested on: SNB-75; experiment: Cytotoxicity against human SNB75 cells after 48 hrs by SRB assay; type: functional; details: SNB-75, 48 h
[21] = tested on: OVCAR-8; experiment: Cytotoxicity against human OVCAR8 cells after 48 hrs by SRB assay; type: functional; details: OVCAR-8, 48 h, read-out: pGI50 (converted)
[22] = tested on: A498; experiment: Cytotoxicity against human A498 cells after 48 hrs by SRB assay; type: functional; details: A498, 48 h
[23] = Cytotoxicity against human 786-O cells after 48 hrs by SRB assay; type: functional; details: 786-0, 48 h
[24] = tested on: RPMI-8226; experiment: Cytotoxicity against human RPMI8226 cells after 48 hrs by SRB assay; type: functional; details: RPMI-8226, 48 h
[25] = tested on: UACC-257; experiment: Cytotoxicity against human UACC257 cells after 48 hrs by SRB assay; type: functional; details: UACC-257, 48 h
[26] = tested on: OVCAR-3; experiment: Cytotoxicity against human OVCAR3 cells after 48 hrs by SRB assay; type: functional; details: OVCAR-3, 48 h
[27] = tested on: K562; experiment: Cytotoxicity against human K562 cells after 48 hrs by SRB assay; type: functional; details: K562, 48 h
[28] = tested on: SK-OV-3; experiment: Cytotoxicity against human SKOV3 cells after 48 hrs by SRB assay; type: functional; details: SK-OV-3, 48 h
[29] = tested on: TK-10; experiment: Cytotoxicity against human TK10 cells after 48 hrs by SRB assay; type: functional; details: TK-10, 48 h
[30] = tested on: NCI-H460; experiment: Cytotoxicity against human NCI-H460 cells after 48 hrs by SRB assay; type: functional; details: NCI-H460, 48 h
[31] = tested on: HCC 2998; experiment: Cytotoxicity against human HCC2998 cells after 48 hrs by SRB assay; type: functional; details: HCC 2998, 48 h
[32] = tested on: IGROV-1; experiment: Cytotoxicity against human IGROV1 cells after 48 hrs by SRB assay; type: functional; details: IGROV-1, 48 h, read-out: pGI50 (converted)
[33] = tested on: PC-3; experiment: Cytotoxicity against human PC3 cells after 48 hrs by SRB assay; type: functional; details: PC-3, 48 h
[34] = tested on: HOP-92; experiment: Cytotoxicity against human HOP92 cells after 48 hrs by SRB assay; type: functional; details: HOP-92, 48 h
[35] = tested on: UACC-62; experiment: Cytotoxicity against human UACC62 cells after 48 hrs by SRB assay; type: functional; details: UACC-62, 48 h
[36] = tested on: LOX IMVI; experiment: Cytotoxicity against human LOXIMVI cells after 48 hrs by SRB assay; type: functional
[37] = tested on: NCI-H226; experiment: Cytotoxicity against human NCI-H226 cells after 48 hrs by SRB assay; type: functional; details: NCI-H226, 48 h
[38] = tested on: Hs-578T; experiment: Cytotoxicity against human Hs578T cells after 48 hrs by SRB assay; type: functional
[39] = tested on: MDA-MB-231; experiment: Cytotoxicity against human MDA-MB-231 cells after 48 hrs by SRB assay; type: functional; details: MDA-MB-231, 48 h, read-out: pGI50 (converted)
[40] = tested on: EKVX; experiment: Cytotoxicity against human EKVX cells after 48 hrs by SRB assay; type: functional
[41] = tested on: OVCAR-5; experiment: Cytotoxicity against human OVCAR5 cells after 48 hrs by SRB assay; type: functional; details: OVCAR-5, 48 h
[42] = tested on: SW-620; experiment: Cytotoxicity against human SW620 cells after 48 hrs by SRB assay; type: functional; details: SW-620, 48 h
[43] = tested on: SK-MEL-2; experiment: Cytotoxicity against human SK-MEL-2 cells after 48 hrs by SRB assay; type: functional; details: SK-MEL-2, 48 h
[44] = tested on: SNB-19; experiment: Cytotoxicity against human SNB19 cells after 48 hrs by SRB assay; type: functional; details: SNB-19, 48 h
[45] = tested on: SR; experiment: Cytotoxicity against human SR cells after 48 hrs by SRB assay; type: functional
[46] = tested on: U-251; experiment: Cytotoxicity against human U251 cells after 48 hrs by SRB assay; type: functional; details: U-251, 48 h, read-out: pGI50 (converted)
[47] = tested on: NCI-H23; experiment: Cytotoxicity against human NCI-H23 cells after 48 hrs by SRB assay; type: functional; details: NCI-H23, 48 h
[48] = tested on: COLO 205; experiment: Cytotoxicity against human COLO205 cells after 48 hrs by SRB assay; type: functional; details: COLO 205, 48 h, read-out: pGI50 (converted)
[49] = tested on: CAKI-1; experiment: Cytotoxicity against human Caki1 cells after 48 hrs by SRB assay; type: functional; details: CAKI-1, 48 h
[50] = tested on: HCT-15; experiment: Cytotoxicity against human HCT15 cells after 48 hrs by SRB assay; type: functional; details: HCT-15, 48 h
[51] = tested on: HCT-116; experiment: Cytotoxicity against human HCT116 cells after 48 hrs by SRB assay; type: functional; details: HCT-116, 48 h
[52] = tested on: MOLT-4; experiment: Cytotoxicity against human MOLT4 cells after 48 hrs by SRB assay; type: functional; details: MOLT-4, 48 h
[53] = tested on: SK-MEL-28; experiment: Cytotoxicity against human SK-MEL-28 cells after 48 hrs by SRB assay; type: functional; details: SK-MEL-28, 48 h
[54] = tested on: KM12; experiment: Cytotoxicity against human KM12 cells after 48 hrs by SRB assay; type: functional; details: KM12, 48 h
[55] = tested on: MDA-MB-468; experiment: Cytotoxicity against human MDA-MB-468 cells after 48 hrs by SRB assay; type: functional; details: MDA-MB-468, 48 h
[56] = Cytotoxicity against human NCI-ADR-RES cells after 48 hrs by SRB assay; type: functional
[57] = tested on: UO-31; experiment: Cytotoxicity against human UO31 cells after 48 hrs by SRB assay; type: functional; details: UO-31, 48 h
[58] = tested on: NCI-H522; experiment: Cytotoxicity against human NCI-H522 cells after 48 hrs by SRB assay; type: functional; details: NCI-H522, 48 h
[59] = tested on: SF-295; experiment: Cytotoxicity against human SF295 cells after 48 hrs by SRB assay; type: functional; details: SF-295, 48 h, read-out: pGI50 (converted)
[60] = tested on: ACHN; experiment: Cytotoxicity against human ACHN cells after 48 hrs by SRB assay; type: functional
[61] = tested on: Malme-3M; experiment: Cytotoxicity against human MALME-3M cells after 48 hrs by SRB assay; type: functional
[62] = tested on: HL-60; experiment: Cytotoxicity against human HL60 cells after 48 hrs by SRB assay; type: functional; details: HL-60, 48 h
[63] = tested on: SF-539; experiment: Cytotoxicity against human SF539 cells after 48 hrs by SRB assay; type: functional; details: SF-539, 48 h

With CO[C@H](C(=O)[C@@H](O)[C@@H](C)O)[C@@H]1Cc2cc3cc(O[C@H]4C[C@@H](O[C@H]5C[C@@H](O)[C@H](O)[C@@H](C)O5)[C@H](O)[C@@H](C)O4)c(C)c(O)c3c(O)c2C(=O)[C@H]1O[C@H]1C[C@@H](O[C@H]2C[C@@H](O[C@H]3C[C@](C)(O)[C@H](O)[C@@H](C)O3)[C@@H](O)[C@@H](C)O2)[C@H](O)[C@@H](C)O1 [PLICAMYCIN] the concentration at 2 h [1] was under 100 nM, the MTD at 192 h [2] was 0.6 mg/kg and the concentration at 5 min [3] was 2700 nM. It also gave a concentration at 0.5 h [4] of 200 nM.

Work on CO[C@H](C(=O)[C@@H](O)[C@@H](C)O)[C@@H]1Cc2cc3cc(O[C@H]4C[C@@H](O[C@H]5C[C@@H](O)[C@H](O)[C@@H](C)O5)[C@H](O)[C@@H](C)O4)c(C)c(O)c3c(O)c2C(=O)[C@H]1O[C@H]1C[C@@H](O[C@H]2C[C@@H](O[C@H]3C[C@H](O)[C@H](O)[C@@H](C)O3)[C@H](O)[C@@H](C)O2)[C@H](O)[C@@H](C)O1 yielded a GI50 [5] of 28.2 nM, a GI50 [6] of 17 nM and a GI50 [7] of 56.2 nM. It also gave a GI50 [8] of 100 nM, a GI50 [9] of 75.9 nM and a GI50 [10] of 209 nM. For the same compound, the GI50 [11] was 30.9 nM, the GI50 [12] was 35.5 nM and the GI50 [13] was 42.7 nM. The GI50 [14] was 25.7 nM, the GI50 [15] was 12.9 nM and the GI50 [16] was 27.5 nM. For the same compound, the GI50 [17] was 44.7 nM, the GI50 [18] was 41.7 nM and the GI50 [19] was 91.2 nM. For the same compound, the GI50 [20] was 30.2 nM, the GI50 [21] was 53.7 nM and the GI50 [22] was 32.4 nM. It also gave a GI50 [23] of 61.7 nM, a GI50 [24] of 11.8 nM and a GI50 [25] of 69.2 nM. It also gave a GI50 [26] of 69.2 nM, a GI50 [27] of 24.6 nM and a GI50 [28] of 102 nM. It also gave a GI50 [29] of 129 nM, a GI50 [30] of 21.4 nM and a GI50 [31] of 61.7 nM. It also gave a GI50 [32] of 75.9 nM, a GI50 [33] of 100 nM and a GI50 [34] of 30.2 nM. It also gave a GI50 [35] of 12.3 nM, a GI50 [36] of 20.4 nM and a GI50 [37] of 45.7 nM. For the same compound, the GI50 [38] was 28.2 nM, the GI50 [39] was 132 nM and the GI50 [40] was 135 nM. It also gave a GI50 [41] of 79.4 nM, a GI50 [42] of 29.5 nM and a GI50 [43] of 33.9 nM. The GI50 [44] was 43.6 nM, the GI50 [45] was 14.1 nM and the GI50 [46] was 23.4 nM. For the same compound, the GI50 [47] was 41.7 nM, the GI50 [48] was 49 nM and the GI50 [49] was 229 nM. It also gave a GI50 [50] of 1050 nM, a GI50 [51] of 19.5 nM and a GI50 [52] of 47.9 nM. It also gave a GI50 [53] of 27.5 nM, a GI50 [54] of 29.5 nM and a GI50 [55] of 50.1 nM. It also gave a GI50 [56] of 7760 nM, a GI50 [57] of 166 nM and a GI50 [58] of 14.1 nM. It also gave a GI50 [59] of 39.8 nM, a GI50 [60] of 155 nM and a GI50 [61] of 24 nM. It also gave a GI50 [62] of 53.7 nM and a GI50 [63] of 33.1 nM.
